Patent EP3831859A1, “COPOLYMER FOR ELECTRODE BINDER AND LITHIUM ION SECONDARY BATTERY” (SHOWA DENKO K.K., priority 2019, dated 2021)

How the values were obtained:
[1] = n-octanol/water partition coefficient LogP (JIS Z 7260-117); details: for chromatographic logP: n-octanol/water
[2] = physchem
[3] = LogP, n-octanol/water partition coefficient
[4] = n-octanol/water partition coefficient

Row | SMILES | chromatographic logP [1] | chromatographic logP [1, 3] | further results
1 | C=CC(=O)OC1CCCCC1 [cyclohexyl acrylate] | 2.76 |  | 
2 | C=CC(=O)OC(C)(C)C [tert-butyl acrylate] | 2.06 |  | 
3 | C=C(C)C(=O)NC(C)C [N-isopropylmethacrylamide] |  | 0.7 | 
4 | C=CC(=O)NCCN(C)C [N-(dimethylaminoethyl) acrylamide] |  | -0.28 | 
5 | C=C(C)C(=O)OC1CC2CCC1(C)C2(C)C (stereo not drawn) [isoboronyl methacrylate] |  |  | LogP [1, 4]: 4.45
6 | C=CC(=O)NC(C)(C)CC(C)=O [diacetone acrylamide] |  |  | chromatographic logP [2]: 0.04
7 | C=CC(=O)OC1CC2CCC1(C)C2(C)C (stereo not drawn) [isoboronyl acrylate] |  |  | LogP [1, 4]: 4.03
8 | C=CC(=O)NCO [N-hydroxymethylacrylamide] |  |  | chromatographic logP ([2]; LogP): -1.38
9 | C=C(C)C(=O)NCCO [N-hydroxyethylmethacrylamide] | -0.95 |  | 
10 | C=CC(=O)OCCCC [n-butyl acrylate] | 2.32 |  | LogP [1, 4]: Acrylic acid-n butyl (E-1) LogP = 2.32
11 | C=C(C)C(=O)OCC(CC)CCCC (stereo not drawn) [2-ethylhexyl methacrylate] |  |  | chromatographic logP ([2]; LogP): 4.62
12 | C=C(CC(=O)O)C(=O)O [itaconic acid] |  | -0.08 | 
13 | C=C(C)C(=O)OC(C)C [isopropyl methacrylate] |  | 2.07 | 
14 | C=CC(=O)OCC(C)C [isobutyl acrylate] | 2.16 |  | 
15 | C=CC(=O)N(C)C [N, N-dimethylacrylamide] |  |  | chromatographic logP ([2]; LogP): -0.14
16 | C=C(C)C(N)=O [methacrylamide] |  | -0.14 | 
17 | C=CC(=O)OCC(CC)CCCC (stereo not drawn) [2-ethylhexyl acrylate] | 4.2 |  | 
18 | C=C(C)C(=O)OCC(C)C [isobutyl methacrylate] |  | 2.58 | 
19 | C=CC(=O)OCCCCCCCCCCCCCCCCCC [stearyl acrylate] |  | 9.45 | 
20 | C=CC(=O)NCN(C)C [N-(dimethylaminomethyl) acrylamide] |  | -0.47 | 
21 | C=CC(=O)NCCCN(C)C [N-(dimethylaminopropyl) acrylamide] |  | -0.24 | 
22 | C=CC(=O)NCC(C)O (stereo not drawn) [N-(2-hydroxypropyl) acrylamide] |  | -1.37 | 
23 | C=C(C)C(=O)OCCCC [n-butyl methacrylate] | 2.74 |  | 
24 | O=C(O)/C=C\C(=O)O [maleic acid] |  | -0.45 | 

Row | SMILES | chromatographic logP [1] | chromatographic logP [1, 3] | further results
25 | C=C(C)C(=O)OCC(C)O (stereo not drawn) [2-hydroxypropyl methacrylate] |  | 0.78 | 
26 | C=CC(=O)OCCC(=O)O [β-carboxyethyl acrylate] |  | 0.31 | 
27 | C=C(C)C(=O)OC(C)(C)C [tert-butyl methacrylate] |  | 2.48 | 
28 | C/C=C/C(=O)O [crotonic acid] |  | 0.66 | 
29 | C=CC(=O)NCCC [N-propylacrylamide] |  | 0.43 | 
30 | C=C(C)C(=O)NCO [N-hydroxymethylmethacrylamide] | -0.96 |  | 
31 | C=CC(=O)OCC [ethyl acrylate] |  | 1.32 | 
32 | C=C(C)C(=O)NCC [N-ethylmethacrylamide] |  | 0.34 | 
33 | C=CC(=O)OCCO [2-hydroxyethyl acrylate] | 0.01 |  | 
34 | C=C(C)C(=O)OCCCCCCCCCCCCCCCCCC [stearyl methacrylate] | 9.87 |  | 
35 | O=C(O)/C=C/C(=O)O [fumaric acid] |  | -0.45 | 
36 | C=CC(=O)OC [methyl acrylate] | 0.8 |  | 
37 | C=C(C)C(=O)OC [methyl methacrylate] | 1.38 |  | 
38 | C=C(C)C(=O)NC [N-methylmethacrylamide] |  | -0.17 | 
39 | C=C(C)C(=O)OCCO [2-hydroxyethyl methacrylate] | 0.43 |  | 
40 | C=CC(=O)OCC(C)O (stereo not drawn) [2-hydroxypropyl acrylate] |  | 0.36 | 
41 | C=CC(=O)NC [N-methylacrylamide] | -0.59 |  | 
42 | C=CC(=O)NCC [N-ethylacrylamide] |  |  | chromatographic logP ([2]; LogP): -0.08
43 | C=C(C)C(=O)OC1CCCCC1 [cyclohexyl methacrylate] | 3.18 |  | 
44 | C=C(C)C(=O)NCC(C)O (stereo not drawn) [N-(2-Hydroxypropyl) methacrylamide] |  | 0.95 | 
45 | C=C(C)C(=O)OCCC [n-propyl methacrylate] |  | 2.23 | 
46 | C=CC(N)=O [acrylamide] | -0.56 |  | 
47 | C=CC(=O)OCCCCO [4-hydroxybutyl acrylate] | 0.59 |  | 
